Experiments:
A-431 = test: Antiproliferative activity against human A431 cells harboring wild type EGFR after 72 hrs by MTT assay; type: functional, cell-based; settings: A-431, 72 h
A549 [1] = test: Antiproliferative activity against human A549 cells harboring wild type EGFR/K-ras mutant after 72 hrs by MTT assay; type: functional, cell-based; settings: A549, 72 h
HCC827 = test: Antiproliferative activity against human HCC827 cells harboring EGFR E746-A750 del mutant after 72 hrs by MTT assay; type: functional, cell-based; settings: HCC827, 72 h
NCI-H1975 = test: Antiproliferative activity against human NCI-H1975 cells harboring EGFR L858R/T790M double mutant after 72 hrs by MTT assay; type: functional, cell-based; settings: NCI-H1975, 72 h
SW480 = test: Antiproliferative activity against human SW480 cells harboring wild type EGFR after 72 hrs by MTT assay; type: functional, cell-based; settings: SW480, 72 h
A549 [2] = test: Induction of apoptosis in human A549 cells assessed as viable cells at 15 uM after 48 hrs by Annexin V-FITC/propidium iodide satining based FACS analysis (reference value: 95.87%); type: functional; settings: A549, 48 h, read-out: Activity
A549 [3] = test: Induction of apoptosis in human A549 cells assessed as early apoptotic cells at 15 uM after 48 hrs by Annexin V-FITC/propidium iodide satining based FACS analysis (reference value: 2.78%); type: functional
A549 [4] = test: Induction of apoptosis in human A549 cells assessed as late apoptotic cells at 15 uM after 48 hrs by Annexin V-FITC/propidium iodide satining based FACS analysis (reference value: 1.21%); type: functional
A549 [5] = test: Induction of apoptosis in human A549 cells assessed as necrotic cells at 15 uM after 48 hrs by Annexin V-FITC/propidium iodide satining based FACS analysis (reference value: 0.14%); type: functional
A549 [6] = test: Cell cycle arrest in human A549 cells assessed as accumulation at G0/G1 phase at 15 uM after 48 hrs by propidium iodide satining based FACS analysis (reference value: 48.87%); type: functional
A549 [7] = test: Cell cycle arrest in human A549 cells assessed as accumulation at S phase at 15 uM after 48 hrs by propidium iodide satining based FACS analysis (reference value: 34.45%); type: functional
[8] = target: Epidermal growth factor receptor (Homo sapiens, UniProt P00533, L858R); test: Inhibition of EGFR L858R mutant (unknown origin) using ULight-poly GT as substrate preincubated for 120 mins followed by substrate addition measured after 2 hrs by spectrophotometric method
Epidermal growth factor receptor (Homo sapiens, UniProt P00533, L858R), sequence (P00533 25-1210 L858R limits assumed): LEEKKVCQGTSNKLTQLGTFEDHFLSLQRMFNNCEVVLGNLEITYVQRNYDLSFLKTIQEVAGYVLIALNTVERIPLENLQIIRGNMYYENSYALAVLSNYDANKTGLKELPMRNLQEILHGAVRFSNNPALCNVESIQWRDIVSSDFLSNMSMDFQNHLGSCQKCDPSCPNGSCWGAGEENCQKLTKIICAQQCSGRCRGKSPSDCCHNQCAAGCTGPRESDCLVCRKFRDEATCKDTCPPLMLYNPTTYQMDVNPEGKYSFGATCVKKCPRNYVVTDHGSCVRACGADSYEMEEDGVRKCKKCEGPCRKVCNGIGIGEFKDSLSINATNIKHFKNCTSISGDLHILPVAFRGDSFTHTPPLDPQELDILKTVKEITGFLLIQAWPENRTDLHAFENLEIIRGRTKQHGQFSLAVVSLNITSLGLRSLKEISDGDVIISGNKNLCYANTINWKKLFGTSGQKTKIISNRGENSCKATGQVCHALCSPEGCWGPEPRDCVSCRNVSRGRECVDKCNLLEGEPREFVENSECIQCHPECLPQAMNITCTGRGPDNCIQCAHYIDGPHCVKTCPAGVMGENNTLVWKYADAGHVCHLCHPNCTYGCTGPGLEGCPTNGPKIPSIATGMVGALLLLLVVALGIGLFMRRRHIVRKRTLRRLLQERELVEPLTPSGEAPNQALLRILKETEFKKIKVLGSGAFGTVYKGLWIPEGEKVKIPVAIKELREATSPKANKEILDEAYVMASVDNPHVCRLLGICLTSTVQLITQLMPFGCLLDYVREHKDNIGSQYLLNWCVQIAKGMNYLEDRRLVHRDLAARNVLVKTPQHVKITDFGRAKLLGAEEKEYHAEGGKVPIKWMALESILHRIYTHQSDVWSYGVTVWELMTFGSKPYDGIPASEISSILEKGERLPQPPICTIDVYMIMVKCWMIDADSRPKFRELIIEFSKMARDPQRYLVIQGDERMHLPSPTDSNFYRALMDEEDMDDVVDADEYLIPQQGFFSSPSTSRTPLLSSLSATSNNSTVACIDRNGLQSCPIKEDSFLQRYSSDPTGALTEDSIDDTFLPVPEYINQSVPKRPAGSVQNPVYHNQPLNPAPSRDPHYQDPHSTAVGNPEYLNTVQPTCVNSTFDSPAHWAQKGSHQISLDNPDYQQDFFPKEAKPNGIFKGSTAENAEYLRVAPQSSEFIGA

[9] = target: Epidermal growth factor receptor (Homo sapiens, UniProt P00533, L858R/T790M); test: Inhibition of EGFR L858R/T790M double mutant (unknown origin) using ULight-poly GT as substrate preincubated for 30 mins followed by substrate addition measured after 1 hr by spectrophotometric method
Epidermal growth factor receptor (Homo sapiens, UniProt P00533, L858R/T790M), sequence (P00533 25-1210 T790M/L858R limits assumed): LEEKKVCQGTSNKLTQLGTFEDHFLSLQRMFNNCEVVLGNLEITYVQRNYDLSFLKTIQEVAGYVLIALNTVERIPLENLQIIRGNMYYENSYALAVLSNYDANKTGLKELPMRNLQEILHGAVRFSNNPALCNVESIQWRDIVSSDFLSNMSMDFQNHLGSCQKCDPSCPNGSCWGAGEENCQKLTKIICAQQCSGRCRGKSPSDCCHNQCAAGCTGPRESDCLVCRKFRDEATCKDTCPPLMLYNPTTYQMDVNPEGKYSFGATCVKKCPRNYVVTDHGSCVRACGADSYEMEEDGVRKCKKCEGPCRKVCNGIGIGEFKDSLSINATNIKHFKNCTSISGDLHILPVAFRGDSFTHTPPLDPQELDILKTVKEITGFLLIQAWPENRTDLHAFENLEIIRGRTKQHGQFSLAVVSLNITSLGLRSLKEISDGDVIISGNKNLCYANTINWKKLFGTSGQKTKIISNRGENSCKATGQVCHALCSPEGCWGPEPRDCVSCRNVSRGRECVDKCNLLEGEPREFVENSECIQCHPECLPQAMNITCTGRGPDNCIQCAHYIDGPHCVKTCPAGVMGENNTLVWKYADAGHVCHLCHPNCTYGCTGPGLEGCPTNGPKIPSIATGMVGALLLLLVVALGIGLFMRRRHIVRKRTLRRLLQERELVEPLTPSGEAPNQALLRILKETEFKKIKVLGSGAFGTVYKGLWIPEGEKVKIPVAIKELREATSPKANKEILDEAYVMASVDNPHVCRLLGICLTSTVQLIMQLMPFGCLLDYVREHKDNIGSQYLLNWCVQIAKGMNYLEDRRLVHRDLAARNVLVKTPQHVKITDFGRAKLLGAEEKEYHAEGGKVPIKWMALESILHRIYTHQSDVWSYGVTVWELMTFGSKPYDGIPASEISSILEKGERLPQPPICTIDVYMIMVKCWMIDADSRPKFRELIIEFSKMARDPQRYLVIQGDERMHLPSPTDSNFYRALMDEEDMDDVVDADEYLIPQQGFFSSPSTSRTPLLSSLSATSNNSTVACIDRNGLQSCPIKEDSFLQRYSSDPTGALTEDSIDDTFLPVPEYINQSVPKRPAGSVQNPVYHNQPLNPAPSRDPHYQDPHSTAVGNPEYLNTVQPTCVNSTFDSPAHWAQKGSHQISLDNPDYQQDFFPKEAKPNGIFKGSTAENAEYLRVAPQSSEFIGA

[10] = target: Epidermal growth factor receptor (Homo sapiens, UniProt P00533, T790M); test: Inhibition of EGFR T790M mutant (unknown origin) preincubated for 10 mins followed by TK substrate-botion addition measured after 1 hr by spectrophotometric method
Epidermal growth factor receptor (Homo sapiens, UniProt P00533, T790M), sequence (P00533 25-1210 T790M limits assumed): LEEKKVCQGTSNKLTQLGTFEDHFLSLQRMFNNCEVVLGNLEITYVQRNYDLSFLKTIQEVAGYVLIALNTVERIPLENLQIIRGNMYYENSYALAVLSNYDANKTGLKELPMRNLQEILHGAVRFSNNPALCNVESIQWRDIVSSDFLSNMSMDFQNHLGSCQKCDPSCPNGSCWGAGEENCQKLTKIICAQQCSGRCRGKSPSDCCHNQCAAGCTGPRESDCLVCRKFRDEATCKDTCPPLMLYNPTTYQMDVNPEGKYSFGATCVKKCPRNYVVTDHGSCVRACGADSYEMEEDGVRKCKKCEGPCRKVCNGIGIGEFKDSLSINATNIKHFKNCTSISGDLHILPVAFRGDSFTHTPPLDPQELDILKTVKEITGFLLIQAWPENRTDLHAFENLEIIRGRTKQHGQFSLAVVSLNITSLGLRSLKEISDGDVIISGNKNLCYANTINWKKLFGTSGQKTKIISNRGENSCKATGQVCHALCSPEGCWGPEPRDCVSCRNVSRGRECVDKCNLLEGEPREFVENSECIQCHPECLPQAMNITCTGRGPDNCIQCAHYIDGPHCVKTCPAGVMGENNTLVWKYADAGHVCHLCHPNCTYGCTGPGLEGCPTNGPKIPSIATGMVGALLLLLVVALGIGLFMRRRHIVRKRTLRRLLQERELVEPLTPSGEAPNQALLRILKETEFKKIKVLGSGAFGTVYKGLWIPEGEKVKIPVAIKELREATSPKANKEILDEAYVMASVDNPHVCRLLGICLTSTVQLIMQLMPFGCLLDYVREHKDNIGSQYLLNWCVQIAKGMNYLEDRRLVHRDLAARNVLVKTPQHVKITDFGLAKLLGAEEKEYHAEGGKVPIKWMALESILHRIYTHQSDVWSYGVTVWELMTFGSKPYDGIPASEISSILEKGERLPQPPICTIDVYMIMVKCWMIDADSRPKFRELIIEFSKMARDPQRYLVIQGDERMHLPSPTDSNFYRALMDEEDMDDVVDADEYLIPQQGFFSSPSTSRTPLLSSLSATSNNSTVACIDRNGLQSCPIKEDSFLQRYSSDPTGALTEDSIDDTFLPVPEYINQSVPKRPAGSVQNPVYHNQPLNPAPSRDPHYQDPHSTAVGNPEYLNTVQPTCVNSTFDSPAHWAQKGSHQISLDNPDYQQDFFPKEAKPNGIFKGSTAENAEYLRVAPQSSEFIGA

Question: Which IC50 (A-431) does the source give for `Fc1ccc(Nc2ncnc3cc(OCCN4CCOCC4)c(OCCN4CCOCC4)cc23)cc1Cl` here?
Answer: 10.4 µM

Question: And the IC50 (A549 [1])?
Answer: 7.91 µM

Question: What about the IC50 (HCC827) of the same compound?
Answer: 0.05 µM

Question: What about the IC50 (NCI-H1975) of the same compound?
Answer: 20.4 µM

Question: And the IC50 (SW480)?
Answer: 16.6 µM

Question: `C#Cc1cccc(Nc2ncnc3cc(OCCCN4CCOCC4)c(OCCCN4CCOCC4)cc23)c1` was tested. Which IC50 (A-431) did it give?
Answer: 1.56 µM

Question: And the IC50 (A549 [1])?
Answer: 3.97 µM

Question: And the IC50 (HCC827)?
Answer: 0.0066 µM

Question: What about the IC50 (NCI-H1975) of the same compound?
Answer: 3.1 µM

Question: What about the IC50 (SW480) of the same compound?
Answer: 5.39 µM

Question: For `C#Cc1cccc(Nc2ncnc3cc(OCCN4CCOCC4)c(OCCN4CCOCC4)cc23)c1`, which IC50 (A-431) is on record?
Answer: 5.41 µM

Question: And the IC50 (A549 [1])?
Answer: 11.5 µM

Question: What about the IC50 (HCC827) of the same compound?
Answer: 0.05 µM

Question: What about the IC50 (NCI-H1975) of the same compound?
Answer: 23.1 µM

Question: And the IC50 (SW480)?
Answer: 20.8 µM

Question: With `C/C=C/c1ccc(Nc2ncnc3cc(OCCN4CCOCC4)c(OCCN4CCOCC4)cc23)cc1` as the compound, how does the IC50 (A-431) read?
Answer: 10.1 µM

Question: What about the IC50 (A549 [1]) of the same compound?
Answer: 14.1 µM

Question: What about the IC50 (HCC827) of the same compound?
Answer: 1.86 µM

Question: What about the IC50 (NCI-H1975) of the same compound?
Answer: 89.3 µM

Question: And the IC50 (SW480)?
Answer: 29.2 µM

Question: Which results are given for `Fc1cccc(COc2ccc(Nc3ncnc4cc(OCCN5CCOCC5)c(OCCN5CCOCC5)cc34)cc2Cl)c1`?
Answer: IC50 (A-431): 3.62 µM; IC50 (A549 [1]): 5.81 µM; IC50 (HCC827): 0.32 µM; IC50 (NCI-H1975): 12.2 µM; IC50 (SW480): 8.82 µM

Question: Which results are given for `CS(=O)(=O)CCNCc1ccc(-c2ccc3ncnc(Nc4ccc(OCc5cccc(F)c5)c(Cl)c4)c3c2)o1` [LAPATINIB]?
Answer: IC50 (A-431): 4.8 µM; IC50 (A549 [1]): 14.9 µM; IC50 (HCC827): 0.6 µM; IC50 (NCI-H1975): 12.7 µM; IC50 (SW480): 12.6 µM; viability at 15 µM (A549 [2]): 87.7%; Activity (A549 [3]): 4.56%; Activity (A549 [4]): 6.27%; Activity (A549 [5]): 1.5%; Activity (A549 [6]): 67.5%; Activity (A549 [7]): 23.89%

Question: With `Fc1ccc(Nc2ncnc3cc(OCCCN4CCOCC4)c(OCCCN4CCOCC4)cc23)cc1Cl` as the compound, how does the IC50 (A-431) read?
Answer: 2.01 µM

Question: What about the IC50 (A549 [1]) of the same compound?
Answer: 3.03 µM

Question: And the IC50 (HCC827)?
Answer: 0.0078 µM

Question: And the IC50 (NCI-H1975)?
Answer: 4.45 µM

Question: And the IC50 (SW480)?
Answer: 3.54 µM

Question: What does the source list for `C/C=C/c1ccc(Nc2ncnc3cc(OCCCN4CCOCC4)c(OCCCN4CCOCC4)cc23)cc1`?
Answer: IC50 (A-431): 1.35 µM; IC50 (A549 [1]): 8.83 µM; IC50 (HCC827): 0.29 µM; IC50 (NCI-H1975): 5.53 µM; IC50 (SW480): 6.08 µM; IC50 [8]: 0.235 µM; IC50 [9]: > 2 µM; IC50 [10]: > 1 µM
